From patent US6376666B1 (Nauchno-Issledovatelsky Institut Farmakologii Rossiiskoi …, priority 1994, dated 2002) come the findings set out here.

Where a name gives a salt, the structure may show the parent alone.

In data set [1] the test system is Balb/c mice. Description: open-field test, Balb/c mice (passive type of emotional-stress reaction). In kind it is in vivo. The settings on record: i.p., screening. An outline of the steps:
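Male mice, 20-22 g, dosed i.p. in water 30 min before a 3-min open-field test after 1 min in darkness; peripheral, central, rearing and total activity plus defecations recorded; Student t-test. Anxiolysis read as Balb/c activation, sedation as C57B1/6 inhibition.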

Data set [2] concerns calcium chloride arrhythmia. Kind of data set: calcium chloride arrhythmia in concious rats. In kind it is in vivo. The settings on record: Rattus norvegicus, iv, concious rats, given 2 min prior calcium chloride 250-300 mg/kg i.v.; read-out: Calcium chloride arrhythmia ED50 (mean effective dose). As for the experimental part: In these experiments the outbred concious rats 180-200 g of weight were injected with 10% solution of calcium chloride in tail vein at dose range of 250-300 mg/kg.

For data set [3], the system named is aconitine arrhythmia. Kind of data set: animal or person. The settings on record: for ED50: Rattus norvegicus, iv, read-out: Aconitine arrhythmia ED50. It is filed as in vivo, rats. As for the experimental part: Aconitine arrhythmia. The aconitine arrhythmia was induced in concious rats weighing 180-200 g by the injection in tail vein of the aconitine sulfate solution at dose range of […]. […] The tested compounds were administered i.v. 3 min prior aconitine injection. The ED50 value was calculated according to Litchfield's method.

The test system of data set [4] is adrenaline arrhythmia. Description: adrenaline arrhythmia in concious rabbits. The settings on record: given 2 min before arrhythmogenic dose of adrenaline.
Protocol: Adrenaline arrhythmia. The 0,1% solution of adrenaline hydrochloride was injected to the marginal ear's vein of rabbit weighing 2,5-3,0 kg at dose ranging 120-150 mcg/kg which induced cardiac rhythm disturbances of two types.
The tested compound was injected in 3 ml of distilled water 30 min after determination of arrhythmogenic dose of adrenaline and the ECG was recorded in 2nd standard lead. 2 min after administration of tested compound the arrhythmogenic dose of adrenaline was injected.
A short description of data set [5]: in vivo. The settings on record: iv.
Data set [6] deals with cats. Kind of data set: hemodynamics and activity of intact heart in cats under anesthesia. In kind it is in vivo. The settings on record: for effect on heart rate, in words: VIII 1,0, IX 0,5 and 1,0, XX 1,0 and 2,0 mg/kg, XXIII 1.0, verapamil 0.5 mg/kg. The procedure:
The effects of compounds on the hemodynamics and activity of intact heart were studied in cats under anesthesia. The experiments were carried out under conditions of open chest. The phase curve of aortic blood flow was the main index of cardiac activity. The compounds were administered i.v. in physiological solution. The t-Student' test was used to estimate the statistical significance.

For data set [7], the system named is ischemized myocardium of cats. Kind of data set: ST-segment elevation during 5 min occlusions of coronary artery (acute coronary deficiency). The settings on record: cats, bolus injection. In kind it is in vivo. The procedure:
These experiments were conducted in cats weighing 2,5-4,0 kg under anasthesia by i.v. injection of nembutal (40 mg/kg) in open chest conditions. Epicardium electrogram in 3-4 leads was registered in “Mingograph-81”. The value of mean elevation of ST-segment during 5 min occlusions of anterior left descending coronary artery with 15 min reperfusions between them was the main index of intensity of reversible ischemized damage of myocardium.
The statistical calculation was carried out with non-parametric Wilcocson method for associated variants.

Data set [8] concerns ischemized myocardium of cats. Kind of data set: contractile and pump functions and ATP level of ischemized myocardium (20-40 min occlusion, reperfusion). In kind it is in vivo. The procedure:
The effects of this compound on contractile and pump functions of ischemized myocardium were studied in cats weighing 3,0-4,5 kg under anesthesia with nembutal (40 mg/kg). […] The phase curve of blood flow in ascending part of the aortic arch was recorded with electromagnetic blood flowmeter MFV-1200 (“Nihon-Kohden”, Japan). Hemodynamics, heart activity values and the number of arrhythmia were calculated. In the experiments with 40 min ischemia immediately after 60 min the intact and ischemized zones of left ventricle were dissected and freezed in liquid nitrogen. ATP level was measured using hexokinase method in these zones. 4 series of experiments (2-control and 2-basic) were conducted in 12 cats in each. For statistical calculation the t-Student and Fisher's precision test were used.

Data set [9] deals with ventricular disturbances of heart rhythm. Kind of data set: arrhythmia in concious dogs according to Harris. In kind it is in vivo. The settings on record: for % ectopic contractions, change vs basal level / Heart rate, change vs basal level: concious dogs, 2 mg/kg i.v. The procedure:
The arrhythmia in concious dogs according to Harris. The experiments were conducted in mongrel dogs of either sex weighing 9-14 kg. Under anesthesia (40 mg/kg of nembutal i.v.) and artificial respiration the two-step occlusion of the left anterior descending coronary artery was performed. The constant ECG disturbances of the heart rhythm were recorded after 24 hours. […] T-Student' test was used for statistical calculation.

Where [10] appears, read: 0.5 mg/kg i.v., 0.25 min after injection.
[11] abbreviates: cats, 0.5 mg/kg i.v., after 2 min.
Setting [12] is: cats, 0.5 mg/kg i.v., after 5 min.
The mark [13] stands for this setting: cats, 0.5 mg/kg i.v., after 10 min.
Where [14] appears, read: cats, 0.5 mg/kg i.v., after 20 min.
Where [15] appears, read: cats, 0.5 mg/kg i.v., after 30 min.
Setting [16] is: 1.0 mg/kg i.v., 0.25 min after injection.
[17] abbreviates: cats, 1.0 mg/kg i.v., after 2 min.
Where [18] appears, read: cats, 1.0 mg/kg i.v., after 5 min.
Setting [19] is: cats, 1.0 mg/kg i.v., after 10 min.
Setting [20] is: cats, 1.0 mg/kg i.v., after 20 min.
[21] abbreviates: cats, 1.0 mg/kg i.v., after 30 min.

Turning to `Cc1cc2nc(SCCN3CCCC3)[nH]c2cc1C` (as salt: hydrochloride) (hydrate or solvate) [XIII, 2-[2-(Pyrrolidino)ethylthio]-5,6-dimethylbenzimidazole], the melting point is 115 to 116 °C (dec.).
In the case of `CCOc1ccc2nc(SCCN3CCCC3)[nH]c2c1` (as salt: hydrochloride) [Compound X, 2-[2-(Pyrrolidino)ethylthio]-5-ethoxybenzimidazole], the melting point was 127 to 130 °C (dec.).
Still for that read-out and setting: as for `C=CCSc1nc2cc(C)c(C)cc2[nH]1` (as salt: hydrochloride) [III, 2-Allylthio-5,6-dimethylbenzimidazole], the figure is 119 to 120 °C; as for `C=CCSc1nc2ccc(OCC)cc2[nH]1` (as salt: hydrochloride) [IV, 2-Allylthio-5-ethoxybenzimidazole], 252 to 254 °C (dec.); as for `CCN(CC)CCSc1nc2ccccc2n1CCc1ccccc1` (as salt: hydrochloride) [XXI, 1-(β-Phenylethyl)-2-[2-(diethylamino)ethylthio]benzimidazole], 129 to 130 °C.
Turning to `CCSc1nc2cc(C)c(C)cc2[nH]1` [Compound I, 2-Ethylthio-5,6-dimethylbenzimidazole], the melting point lay in the range of 123 to 124 °C. Besides, the “effect on the behavior (locomotor activity) of Balb/c mice in open-field test, in words” value in data set [1] is listed as “neither activatory nor inhibitory effects”.
Turning to `CCCSc1nc2cc(C)c(C)cc2[nH]1` [II, 2-Propylthio-5,6-dimethylbenzimidazole], the melting point was 122 to 123 °C.
Turning to `CCN(CC)CC(=O)Nc1c(C)cccc1C` [Lidocaine, lidocaine], the results for the ED50 in data set [2] and in [3] were 7.5 mg/kg and 7.8 mg/kg, respectively. In addition, the “Adrenaline arrhythmia. Range of active doses” value (shortened to “Adrenaline arrhythmia. Range”) in data set [4] lay in the range of 5.0 to 8.0 mg/kg.
Regarding `CCN(CC)CCNC(=O)c1ccc(N)cc1` [Novocainamide, novocainamide, reference compound], the figures for the median effective dose (ED50) in data set [2] and in data set [3] were 50 mg/kg and 41 mg/kg, respectively. Besides, in data set [3] (LD50 i.v. / ED50 aconitine arrhythmia), the “LD50/ED50 (antiarrhythmic index)” value was 2.7. The molecule further gave a median lethal dose (LD50) in data set [5] of 110 mg/kg.
With `CC(C)NCC(O)COc1cccc2ccccc12` (centres unmarked) [Propranolol, propranolol, reference compound], in data set [2], the 50% effective dose (ED50) was determined as 0.8 mg/kg. In addition, in data set [4], the “Adrenaline arrhythmia. Range” value is 0.3 to 1.0 mg/kg.
Take `COc1ccc(CCN(C)CCCC(C#N)(c2ccc(OC)c(OC)c2)C(C)C)cc1OC` (centres unmarked) [Verapamil, verapamil, reference compound]: the “Heart rate, change from basal level” value is given as −13.7 ± 1.7 % in data set [6] (setting [10]); −11.8 ± 2.0 % in data set [6] (setting [11]); −12.3 ± 3.0 % in data set [6] (setting [12]); −8.1 ± 2.0 % in data set [6] (setting [13]); −5.4 ± 2.0 % in data set [6] (setting [14]); −4.6 ± 3.4% in data set [6] (setting [15]). The “Mean blood flow accelaration, change from basal level” value in data set [6] (setting [10]) is −32.5 ± 5.7 %. Moreover, the “Mean blood pressure, change from basal level” value in [6] (setting [10]) was −40.4 ± 7.0 %; in data set [6] (setting [11]) it was −22.7 ± 8.1%; in data set [6] (setting [12]) it was −8.7 ± 6.3%; in data set [6] (setting [13]) it was −2.4 ± 2.6%; in [6] (setting [14]) it was −8.5 ± 6.6%; in [6] (setting [15]) it was −11.6 ± 7.0%. Further, the “effect on heart rate, in words” value in [6] (cats i.v.) is recorded as “induced the bradycardia”. Besides, the “Mean blood flow accelaration (aortic), change from basal level” value in data set [6] (setting [11]) is −15.5 ± 2.4 %; in data set [6] (setting [12]), −8.1 ± 3.0 %; in data set [6] (setting [13]) it was −9.9 ± 2.5 %; in data set [6] (setting [14]), −8.7 ± 3.0%; in [6] (setting [15]), −7.0 ± 4.2%. Moreover, the median effective dose (ED50) in data set [2] worked out at 1.1 mg/kg. In addition, in [4], the “Adrenaline arrhythmia. Range” value lay in the range of 0.3 to 1.0 mg/kg.
In the case of `CCN(CC)CCSc1nc2cc(C)c(C)cc2[nH]1.Cl.Cl` [XXIII, dihydroxychloride 2-[2-(diethylamino)ethylthio]-5,6-dimethylbenzimidazole, reference compound], the “Cardiac volume, change from basal level” value in data set [6] (setting [16]) was “+3.6 ± 3.5%”; in [6] (setting [17]), −3.6 ± 2.0%; in data set [6] (setting [18]) it was −0.6 ± 2.3%; in [6] (setting [19]), −0.7 ± 3.6%; in data set [6] (setting [20]), −4.2 ± 2.4%; in data set [6] (setting [21]), −4.5 ± 3.5%. In addition, the “Heart rate, change from basal level” value in data set [6] (setting [16]) is given as −14.6 ± 1.2 %; in data set [6] (setting [17]), −11.7 ± 1.3 %; in data set [6] (setting [18]) it was −7.9 ± 1.6 %; in data set [6] (setting [19]), −5.1 ± 1.2 %; in data set [6] (setting [20]), −3.8 ± 1.5 %; in data set [6] (setting [21]), −4.1 ± 1.0 %. Also, the “Mean blood flow accelaration, change from basal level” value in data set [6] (setting [16]) was “+2.1 ± 4.9%”. For the same molecule, the “Mean blood pressure, change from basal level” value in data set [6] (setting [16]) is listed as −13.9 ± 2.9 %; in [6] (setting [17]), −0.2 ± 4.0%; in data set [6] (setting [18]), “+3.4 ± 2.5%”; in [6] (setting [19]), “+3.8 ± 3.2%”; in data set [6] (setting [20]), “+2.8 ± 2.8%”; in data set [6] (setting [21]) it was “+2.9 ± 3.2%”. In data set [6] (cats i.v., same doses as bradycardia), the “effect on contractile function of heart, in words” value is “inhibition of contractile function of heart”. In addition, the “effect on heart rate, in words” value in [6] (cats i.v.) was “expressed and long bradycardia”. For the same molecule, the “Mean blood flow accelaration (aortic), change from basal level” value in data set [6] (setting [17]) is −4.9 ± 4.7%; in data set [6] (setting [18]), −1.0 ± 5.0%; in [6] (setting [19]), “+8.1 ± 3.0 %”; in data set [6] (setting [20]), “+4.3 ± 2.7%”; in data set [6] (setting [21]), −2.4 ± 3.4%. Also, the “duration of effect on ST-segment elevation after bolus injection, in words” value in [7] is “very short”. Further, the “effect on inhibition of contractile function of myocardium induced by ischemic damage, in words” value in data set [8] (20 min occlusion, 30 min reperfusion, 1,0 mg/kg bolus +50 mcg/kg/min i.v. during 30 min) was “observable only during occlusion period and first 10 min of reperfusion”. Further, in data set [8] (40 min occlusion, 60 min reperfusion, hexokinase method), the “effect on ATP level in ischemized myocardium, in words” value is listed as “did not change the ATP level”. Moreover, the “% ectopic contractions, change vs basal level” value in data set [9] (after 1 min) is given as −57.4 ± 17.6 %; in data set [9] (after 3 min), −66.2 ± 18.1 %; in data set [9] (after 5 min), −54.6 ± 16.8 %; in data set [9] (after 10 min) it was −22.6 ± 8.9 %; in data set [9] (after 15 min) it was −24.8 ± 11.1 %; in [9] (after 30 min), −8.8 ± 4.7%. The “% ectopic contractions, change vs basal level” value in data set [9] (after 60 min) is −5.2 ± 2.6%. For the same molecule, the “Heart rate, change vs basal level” value is given as −19.0 ± 2.5 beats/min in [9] (after 1 min); −30.4 ± 4.5 beats/min in data set [9] (after 5 min); −29.0 ± 5.5 beats/min in data set [9] (after 15 min); −14.0 ± 4.8 beats/min in [9] (after 30 min); −12.0 ± 5.5 beats/min in data set [9] (after 60 min). In addition, in data set [9] (concious dogs, 2,0 mg/kg i.v.), the “duration of antiarrhythmic effect” value is on record as “shorter”.
